Where two headings read alike, the source gives them in different places.
Key:
[1] = biological target: MAPKAPK2 (MK-2) (Homo sapiens, UniProt P49137); assay: Determination of MK-2 IC50 (HSP-peptide phosphorylation, anion exchange resin capture assay); format: biochemical
Procedure: Determination of MK-2 IC50:
Recombinant MAPKAPK2 was phosphorylated at a concentration of 42-78 μM by incubation with 0.23 μM of active p38α in 50 mM HEPES, 0.1 mM EDTA, 10 mM magnesium acetate, and 0.25 mM ATP, pH 7.5 for one hour at 30° C.
The phosphorylation of HSP-peptide ([…]) by MAPKAPK2 was measured using an anion exchange resin capture assay method. The reaction was carried out in 50 mM β-glycerolphosphate, 0.04% BSA, 10 mM magnesium acetate, 2% DMSO and 0.8 mM dithiotheritol, pH 7.5 in the presence of the HSP-peptide with 0.2 μCi [γ^33P]ATP and 0.03 mM ATP. The reaction was initiated by the addition of 15 nM MAPKAPK2 and was allowed to incubate at 30° C. for 30 min. The reaction was terminated and [γ^33P]ATP was removed from solution by the addition of 150 μl of AG 1×8 ion exchange resin in 900 mM sodium formate pH 3.0. A 50 μl aliquot of head volume was removed from the quenched reaction mixture and added to a 96-well plate, 150 μl of Microscint-40 (Packard) was added and the amount of phosphorylated-peptide was determined. Allow the Microscint to sit in the plates for 60 minutes prior to counting.
Compounds are evaluated as potential inhibitors of the MK-2 kinase by measuring their effects on MK-2 phosphorylation of the peptide substrate. Compounds may be screened initially at two concentrations prior to determination of IC50 values. Screening results are expressed as percent inhibition at the concentrations of compound tested. For IC50 value determinations, Compounds are tested at six concentrations in ten-fold serial dilutions with each concentration tested in triplicate. Results are expressed as IC50 values in micromolar. The assay is performed at a final concentration of 2% DMSO.

[2] = biological target: MK-3 (Homo sapiens, UniProt Q16644); assay: MK-3 inhibition IC50 (similar method to MK-2, with appropriate modifications); format: biochemical; settings: read-out: MK-3 Avg. IC50
Chain of MK-3 (Q16644 whole entry, species assumed): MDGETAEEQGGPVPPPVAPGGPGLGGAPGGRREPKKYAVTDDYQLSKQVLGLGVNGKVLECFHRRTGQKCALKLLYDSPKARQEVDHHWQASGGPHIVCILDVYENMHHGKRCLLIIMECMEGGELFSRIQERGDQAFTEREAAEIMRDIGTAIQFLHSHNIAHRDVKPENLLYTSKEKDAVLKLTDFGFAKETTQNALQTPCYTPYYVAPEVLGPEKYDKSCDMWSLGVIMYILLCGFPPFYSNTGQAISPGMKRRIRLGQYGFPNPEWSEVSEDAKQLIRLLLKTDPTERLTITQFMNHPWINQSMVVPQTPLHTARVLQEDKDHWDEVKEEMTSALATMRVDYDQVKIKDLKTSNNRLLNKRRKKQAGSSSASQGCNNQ
Procedure: In practice, the selectivity of a cyclic pyrazole MK-2 inhibitor varies depending upon the condition under which the test is performed and on the inhibitors being tested. However, for the purposes of this specification, the selectivity of a cyclic pyrazole MK-2 inhibitor inhibitor can be measured as a ratio of the in vitro or in vivo IC50 value for inhibition of MK-3, divided by the IC50 value for inhibition of MK-2 (IC50 MK-3/IC50 MK-2). […] The MK-2 or MK-3 inhibiting activity of any of the compounds described herein can be determined by any one of several methods that are well known to those having skill in the art of enzyme activity testing. […] A similar method, with appropriate modifications, Can be used to measure MK-3 inhibitory activity. In addition, the efficacy of one of the present MK-2 inhibiting compounds in therapeutic applications can be determined by testing for inhibition of TNFα production in cell culture and in animal model assays.

[3] = Table 1, phenoxypyrazole MK-2 inhibitors, read-out: MK-2 Avg, IC50
[4] = Table 1, phenoxypyrazole MK-2 inhibitors
[5] = Table 2, pyrazolylpyrazole MK-2 inhibitors, read-out: MK-2 Avg. IC50
[6] = Table 2, pyrazolylpyrazole MK-2 inhibitors
[7] = Table 5, other cyclic pyrazole MK-2 inhibiting compounds, read-out: MK-2 Avg. IC50
[8] = Table 5, other cyclic pyrazole MK-2 inhibiting compounds

Chain of MAPKAPK2 (MK-2) (P49137 whole entry, species assumed): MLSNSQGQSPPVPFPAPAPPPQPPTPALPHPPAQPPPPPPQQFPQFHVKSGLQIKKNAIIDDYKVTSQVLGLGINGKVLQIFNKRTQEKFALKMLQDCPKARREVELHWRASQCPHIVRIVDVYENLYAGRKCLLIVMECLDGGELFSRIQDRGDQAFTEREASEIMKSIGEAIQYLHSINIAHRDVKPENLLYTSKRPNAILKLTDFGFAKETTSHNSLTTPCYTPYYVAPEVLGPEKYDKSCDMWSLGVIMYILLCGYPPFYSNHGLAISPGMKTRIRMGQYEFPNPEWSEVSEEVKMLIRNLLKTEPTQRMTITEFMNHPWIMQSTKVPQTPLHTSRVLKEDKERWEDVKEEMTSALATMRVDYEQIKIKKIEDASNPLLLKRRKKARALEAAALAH

Structure (SMILES)	IC50 ([1]; read-out: MK-2 Avg. IC50)	IC50 [2]	IC50 [1, 3]	IC50 [2, 4]	other results
NCCCn1nc2c(c1C(=O)O)CCc1cnc(-c3ccc(F)c(F)c3)cc1-2 [Example 17]	0.0786 µM	1.73 µM	–	–	–
COc1ccc2c(c1)CCc1c(C(=O)NCCCN(C)C)nn(-c3ccc(Cl)cc3)c1-2 [Example 161]	–	–	> 200 µM	> 200 µM	–
C=CCn1nc2c(c1C(N)=O)CCc1[nH]ncc1-2 [Example 43]	–	–	–	–	IC50 [1, 5]: 181 µM; IC50 [2, 6]: ≥ 200 µM
COc1ccc(-c2cc3c(cn2)CCc2c-3nn(CCCN)c2C(=O)O)cc1 [Example 10]	0.0371 µM	0.995 µM	–	–	–
O=C1NCCn2nc3c(c21)CCc1cnc(N2CCC(O)CC2)cc1-3 [Example 159]	9.84 µM	22.8 µM	–	–	–
Cn1nc(C(=O)O)c2c1-c1ccc(O)cc1CC2 [Example 39]	–	–	56.2 µM	> 200 µM	–
NCCCn1nc2c(c1C(=O)O)CCc1cc(O)c(-c3ccncc3)cc1-2 [Example 23]	–	–	18.8 µM	> 200 µM	–
O=C1NCCn2nc3c(c21)CCc1cnc(-n2ccnc2)cc1-3 [Example 13]	0.0523 µM	5.34 µM	–	–	–
NCCCn1nc2c(c1C(=O)O)CCc1cc(O)c(CCc3ccc(Cl)cc3)cc1-2 [Example 6]	–	–	2.29 µM	38.2 µM	–
O=C1NC(CNCCc2cccs2)Cn2nc3c(c21)CCc1cnccc1-3 (stereo not shown) [Example 73]	0.924 µM	27.8 µM	–	–	–
O=C(O)c1[nH]nc2c1CCc1[nH]ncc1-2 [Example 45]	–	–	–	–	IC50 [1, 5]: 188 µM; IC50 [2, 6]: ≥ 200 µM
COC(=O)c1[nH]nc2c1CCc1cc(OC)ccc1-2 [Example 182]	–	–	> 200 µM	> 200 µM	–
O=C1NCCn2nc3c(c21)CCc1[nH]ncc1-3 [Example 14]	–	–	–	–	IC50 [1, 5]: 20 µM; IC50 [2, 6]: 137 µM
O=C(O)c1c2c(nn1CCCNCCc1ccc(Cl)cc1)-c1ccncc1CC2 [Example 56]	0.551 µM	7.86 µM	–	–	–
CNC(=O)c1nn(-c2ccc(S(N)(=O)=O)cc2)c2c1CCc1[nH]ncc1-2 [Example 52]	–	–	–	–	IC50 [1, 5]: ≥ 200 µM; IC50 [2, 6]: ≥ 200 µM
CCOC(=O)c1[nH]nc2c1CCc1c-2ccc(O)c1Br [Example 53]	–	–	116 µM	> 200 µM	–
COc1ccc(/C=C/c2cc3c(cn2)CCc2c-3nn3c2C(=O)NCC3)cc1 [Example 12]	–	–	–	–	IC50 [1, 7]: 4.76 µM; IC50 [2, 8]: > 200 µM
NCCCn1nc2c(c1C(=O)O)CCc1cnc(-c3cccc([N+](=O)[O-])c3)cc1-2 [Example 2]	0.018 µM	0.142 µM	–	–	–
CS(=O)(=O)c1cccc(-c2cc3c(cn2)CCc2c-3nn(CCCN)c2C(=O)O)c1 [Example 11]	0.0391 µM	0.453 µM	–	–	–
O=C1NCCn2nc3c(c21)CCc1cnc(/C=C/c2ccc(C(F)(F)F)cc2)cc1-3 [Example 9]	–	–	–	–	IC50 [1, 7]: 2.26 µM; IC50 [2, 8]: > 20 µM
COC(=O)c1[nH]nc2c1CCc1cc(O)c(O)cc1-2 [Example 64]	–	–	154 µM	> 200 µM	–
O=C1NCCCn2nc3c(c21)CCc1cc(O)c(-c2cccc([N+](=O)[O-])c2)cc1-3 [Example 3]	–	–	1.48 µM	> 200 µM	–
O=C(O)c1c2c(nn1CCCNCCc1ccc(Br)cc1)-c1cc(/C=C/c3ccccc3)ncc1CC2 [Example 34]	–	–	–	–	IC50 [1, 7]: 0.28 µM; IC50 [2, 8]: 2.02 µM
CCOC(=O)c1[nH]nc2c1CCc1c-2cnn1CCO [Example 69]	–	–	–	–	IC50 [1, 5]: ≥ 200 µM; IC50 [2, 6]: ≥ 200 µM
CCOC(=O)c1nn(-c2ccccc2)c2c1CCc1[nH]ncc1-2 [Example 54]	–	–	–	–	IC50 ([1]; MK-2 Avg. IC50 (uM), Table 2, pyrazolylpyrazole MK-2 inhibitors): ≥ 200 µM; IC50 [2, 6]: ≥ 200 µM
CSc1n[nH]c2c1-c1nn(CCCN)c(C(=O)O)c1CC2 [Example 1]	–	–	–	–	IC50 [1, 5]: 1.06 µM; IC50 [2, 6]: 47 µM
CN(C)c1ccc(-c2cc3c(cn2)CCc2c-3nn3c2C(=O)NCC3)cc1 [Example 42]	0.272 µM	36 µM	–	–	–
COc1cc2c(cc1-c1ccc(F)c(F)c1)-c1nn(CCCNC(=O)OC(C)(C)C)c(C(=O)O)c1CC2 [Example 46]	–	–	92.7 µM	> 200 µM	–
NC(=O)c1[nH]nc2c1CCc1[nH]ncc1-2 [Example 17]	–	–	–	–	IC50 [1, 5]: 28.4 µM; IC50 [2, 6]: 129 µM

Source: patent US20040127492A1 (Pharmacia Corporation, priority 2002, published 2004)
